{"source": "paper PMC3197605", "about": "“Expression, Purification and Characterization of Arginase from Helicobacter pylori in Its Apo Form” (PLoS ONE, 2011)", "biological_target": "T1, arginase (RocF) (Helicobacter pylori, UniProt O25949)", "T1 construct": "gene HP_1399; RocF with C-terminal His6 tag, apo form, expressed in E. coli BL21 (DE3)", "T1 sequence (O25949 entry or part of it)": "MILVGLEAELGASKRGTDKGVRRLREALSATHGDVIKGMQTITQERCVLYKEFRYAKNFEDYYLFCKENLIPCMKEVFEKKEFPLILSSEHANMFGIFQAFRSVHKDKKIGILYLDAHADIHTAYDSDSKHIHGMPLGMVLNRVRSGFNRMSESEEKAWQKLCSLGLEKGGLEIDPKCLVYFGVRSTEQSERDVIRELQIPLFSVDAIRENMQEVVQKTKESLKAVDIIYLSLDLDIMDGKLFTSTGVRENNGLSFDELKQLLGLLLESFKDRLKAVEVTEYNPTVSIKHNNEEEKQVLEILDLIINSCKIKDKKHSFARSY", "assay": "colorimetric arginase assay (ninhydrin detection of L-ornithine), purified apo-RocF heat-activated with Co2+, pH […]", "format": "biochemical", "note": "pIC50: −log10 of the molar value. Like-named read-outs stand apart in the source and are kept apart here.", "data": [{"smiles": "N=C(NO)NCC[C@H](N)C(=O)O", "note": "[nor-NOHA]", "values": [{"measurement": "pIC50", "setting": "read-out: IC50", "result": 3.30}]}, {"smiles": "N[C@@H](CSCCB(O)O)C(=O)O", "note": "[BEC, S-(2-boronoethyl)-L-Cysteine]", "values": [{"measurement": "pIC50", "result": 3.00}]}]}
